Source: EP1366765A1, “Use of matrix metalloproteinase inhibitors for treating neurological disorders and promoting wound healing” (priority 1996, dated 1998)
pIC50: −log10 of the molar value. Where a name gives a salt, the structure may show the parent alone. Where a SMILES comes first, the peptide text is derived from it. The star is where a group is joined. Hydrocinnamoyl = O=C(CCc1ccccc1)*; Tfa = O=C(C(F)(F)F)*

How the values were obtained:
[1] = molecular target: MMP-3 (Homo sapiens, UniProt P08254); settings: cited from earlier work
[2] = molecular target: T1, MMP-1 (Homo sapiens, UniProt P03956); settings: cited from earlier work; for pIC50: IA = inactive
T1 sequence (P03956 100-469): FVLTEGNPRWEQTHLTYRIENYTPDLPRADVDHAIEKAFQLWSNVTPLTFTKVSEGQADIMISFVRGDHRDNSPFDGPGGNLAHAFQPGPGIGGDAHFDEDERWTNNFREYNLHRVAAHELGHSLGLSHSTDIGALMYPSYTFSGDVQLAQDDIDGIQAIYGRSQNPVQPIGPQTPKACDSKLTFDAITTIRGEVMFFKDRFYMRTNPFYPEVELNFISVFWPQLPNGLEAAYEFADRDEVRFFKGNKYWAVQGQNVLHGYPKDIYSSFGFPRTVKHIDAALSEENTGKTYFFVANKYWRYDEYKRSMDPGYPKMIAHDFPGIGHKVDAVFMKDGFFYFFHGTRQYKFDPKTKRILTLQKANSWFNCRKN

[3] = molecular target: MMP-9 (Homo sapiens, UniProt P14780); settings: cited from earlier work
[4] = system: MMP-2; settings: cited from earlier work
[5] = system: MMP-2
[6] = molecular target: MMP-13 (Homo sapiens, UniProt P45452); settings: cited from earlier work
[7] = molecular target: MMP-8 (Homo sapiens, UniProt P22894); settings: cited from earlier work
[8] = cited from earlier work; for activity in the guinea pig model of osteoarthritis (in words): in vivo; for inhibiting femoral lesions: guinea pig model of osteoarthritis
[9] = system: stromelysin; settings: dosed orally at 30 mg/kg in rabbits injected with stromelysin; cited from earlier work
[10] = system: MMPs; settings: cited from earlier work
[11] = from MBP-sensitized splenocytes; cited from earlier work
[12] = in vivo; cited from earlier work
[13] = in vivo; cited from earlier work; remark: listed apart in the source

MMP-9, sequence (P14780 94-707, species assumed): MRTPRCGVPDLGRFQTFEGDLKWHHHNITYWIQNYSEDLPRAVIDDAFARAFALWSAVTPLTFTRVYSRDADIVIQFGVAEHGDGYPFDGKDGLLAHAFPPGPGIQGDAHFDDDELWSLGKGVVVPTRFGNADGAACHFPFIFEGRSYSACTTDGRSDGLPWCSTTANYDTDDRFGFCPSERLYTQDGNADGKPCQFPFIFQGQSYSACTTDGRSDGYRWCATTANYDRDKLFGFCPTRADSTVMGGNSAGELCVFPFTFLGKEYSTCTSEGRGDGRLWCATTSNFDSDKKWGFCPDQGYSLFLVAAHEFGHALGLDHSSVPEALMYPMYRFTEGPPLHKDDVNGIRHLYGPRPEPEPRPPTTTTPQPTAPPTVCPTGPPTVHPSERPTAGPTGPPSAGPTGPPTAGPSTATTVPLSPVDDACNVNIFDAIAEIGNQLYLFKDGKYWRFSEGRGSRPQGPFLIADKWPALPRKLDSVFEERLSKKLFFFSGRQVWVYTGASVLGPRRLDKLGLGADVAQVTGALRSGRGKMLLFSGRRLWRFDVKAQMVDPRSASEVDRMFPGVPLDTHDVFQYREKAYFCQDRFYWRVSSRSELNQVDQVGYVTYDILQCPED
MMP-3, sequence (P08254 100-477, species assumed): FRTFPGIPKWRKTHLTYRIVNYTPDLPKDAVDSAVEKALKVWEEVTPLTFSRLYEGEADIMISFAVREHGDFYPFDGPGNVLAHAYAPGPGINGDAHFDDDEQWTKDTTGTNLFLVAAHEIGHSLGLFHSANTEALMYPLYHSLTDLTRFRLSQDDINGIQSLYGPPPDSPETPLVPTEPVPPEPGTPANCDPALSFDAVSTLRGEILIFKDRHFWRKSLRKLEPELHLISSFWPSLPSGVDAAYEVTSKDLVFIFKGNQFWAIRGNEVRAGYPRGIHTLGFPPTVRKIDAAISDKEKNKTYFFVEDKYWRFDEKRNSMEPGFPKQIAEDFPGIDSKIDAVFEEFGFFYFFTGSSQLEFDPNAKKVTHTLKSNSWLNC
MMP-8, sequence (P22894 101-467, species assumed): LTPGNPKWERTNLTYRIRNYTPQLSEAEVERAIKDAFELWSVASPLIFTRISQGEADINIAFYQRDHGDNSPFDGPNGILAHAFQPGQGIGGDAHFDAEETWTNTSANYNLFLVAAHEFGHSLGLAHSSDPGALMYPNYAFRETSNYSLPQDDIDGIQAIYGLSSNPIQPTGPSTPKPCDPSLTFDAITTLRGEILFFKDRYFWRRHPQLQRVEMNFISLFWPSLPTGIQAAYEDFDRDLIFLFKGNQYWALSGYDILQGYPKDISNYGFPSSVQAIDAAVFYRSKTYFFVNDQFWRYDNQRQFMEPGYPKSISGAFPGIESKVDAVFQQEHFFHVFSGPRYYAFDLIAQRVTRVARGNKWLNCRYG

CNC(=O)[C@H](Cc1ccccc1)NC(=O)[C@H](CC(C)C)N[C@@H](CCN1C(=O)c2cc3ccccc3c(OC)c2C1=O)C(=O)O [Compound 29]
pIC50 [1]: 5.85 | pIC50 [2]: 7.27 | pIC50 [3]: 8.15

Cc1ccc(CCC[C@H](CC(=O)O)C(=O)N[C@@H](CC2CCCCC2)C(=O)NCCc2ccccc2)cc1 [Compound 19]
pIC50 [1]: 6.33 | pIC50 [4]: 9.00 | pIC50 [2]: 4.66

O=C(C[C@@H](CCCc1ccccc1)C(=O)N[C@@H](CC1CCCCC1)C(=O)NCCc1ccccc1)NO [Compound 17]
selectivity for MMP-2 over MMP-1 [5]: 10,000 fold | selectivity for MMP-2 over MMP-3 [5]: 100 fold | pIC50 [1]: 8.08 | pIC50 [2]: 6.69

O=C(C[C@@H](CCCc1ccc(Cl)cc1)C(=O)N[C@@H](CC1CCCCC1)C(=O)NCCNS(=O)(=O)N1CCOCC1)NO [Compound 18]
pIC50 [4]: > 11.00 | pIC50 [2]: 6.41 | inhibition of MMP-13 (in words) [6]: potently inhibits | pIC50 [3]: 10.80

CNC(=O)[C@H](Cc1ccccc1)NC(=O)[C@H](CCCOCc1ccccc1)CC(=O)NO [Compound 8]
pIC50 [2]: 5.64

CNC(=O)[C@H](Cc1ccccc1)NC(=O)[C@H](CC(C)C)N[C@@H](CCN1C(=O)c2cc3ccccc3cc2C1=O)C(=O)O [Compound 28]
pIC50 [1]: 7.04 | pIC50 [2]: 7.70 | pIC50 [3]: 8.30

NC(=O)C(Cc1ccccc1)NC(=O)C(CS)NC(=O)C(F)(F)F (stereo not drawn) [Compound 33] (Tfa-Cys-Phe-NH2; configuration not given here)
pIC50 [2]: 7.40

CCCc1ccc(CCC(CC(CCCCN2C(=O)c3ccccc3C2=O)C(=O)O)C(=O)NC(CC(C)C)C(=O)Nc2ccccc2)cc1 (stereo not drawn) [Compound 32]
pIC50 [1]: 10.44 | pIC50 [4]: 8.24 | pIC50 [2]: < 5.00

CNC(=O)[C@H](Cc1ccccc1)NC(=O)[C@H](CCCC(=O)NCCc1ccccc1)CC(=O)NO [Compound 7]
pIC50 [2]: 5.89 | pIC50 [7]: 7.49

CCCCCCCCC(NC(C)C(=O)O)C(=O)NC(CC(C)C)C(=O)Nc1ccccc1 (stereo not drawn) [Compound 24]
pIC50 [1]: 6.24 | pIC50 [4]: 6.47 | pIC50 [2]: < 5.00

CC(C)CC(NC(=O)C(CCc1ccccc1)NC(CCCCN1C(=O)c2ccccc2C1=O)C(=O)O)C(=O)Nc1ccccc1 (stereo not drawn) [Compound 27]
pIC50 [1]: 8.10 | pIC50 [4]: 7.07 | pIC50 [2]: 6.14

CCCCCCCCCCCC[C@H](CC(=O)O)C(=O)N[C@@H](Cc1ccccc1)C(=O)NC [Compound 11]
MMP-1 % @ 100 µM ([2]; @ 100 µM): 30% @ 100 µM

COc1ccc(S(=O)(=O)N(Cc2cccnc2)[C@@H](C(=O)NO)C(C)C)cc1 [Compound 40]
activity in the guinea pig model of osteoarthritis (in words) [8]: effective | proteoglycan break down [9]: blocks proteoglycan break down

CC(C)CC(NC(CCN1C(=O)c2cc3ccccc3cc2C1=O)C(=O)O)C(=O)NCCc1ccccc1 (stereo not drawn) [Compound 30]
pIC50 [4]: < 5.00 | pIC50 [2]: 6.80 | pIC50 [3]: 7.46

CO[C@H]1[C@H](O[C@@H]2c3c(cc4c(c3O)C(=O)c3c(O)cccc3C4=O)C(=O)[C@@](C)(O)[C@H]2OC)O[C@@H](C)[C@H](O)[C@H]1O [Compound 46, aranciamycin]
inhibition of MMPs (in words) [10]: weak inhibitors

NC(=O)C(Cc1ccccc1)NC(=O)C(CS)NC(=O)CCc1ccccc1 (stereo not drawn) [Compound 35] (Hydrocinnamoyl-Cys-Phe-NH2; configuration not given here)
pIC50 [2]: 5.46 | pIC50 [7]: 7.42

CNC(=O)[C@@H](NC(=O)[C@@H](CC(=O)NO)CC(C)C)C(C)(C)C [RO 31-9790]
protection in adoptively transferred EAE [11]: protect

CCCNC(=O)CCC[C@H](CC(=O)NO)C(=O)N[C@@H](Cc1ccccc1)C(=O)NC [Compound 6]
pIC50 [2]: 5.29 | pIC50 [7]: 8.70

CC(C)C[C@H](N[C@@H](CCN1C(=O)c2cc3ccccc3cc2C1=O)C(=O)O)C(=O)NCc1ccc(C(=O)O)cc1 [Compound 31]
pIC50 [4]: 6.75 | pIC50 [2]: 7.25 | pIC50 [3]: 7.13

CNC(=O)[C@H](Cc1ccccc1)NC(=O)[C@H](CCCCO)CC(=O)NO [Compound 5]
pIC50 [2]: 7.19 | pIC50 [7]: 8.15

Cc1ccc(CCCC(CP(=O)(O)O)C(=O)NC(CC2CCCCC2)C(=O)NCCc2ccccc2)cc1 (stereo not drawn) [Compound 37]
pIC50 [1]: 6.56 | pIC50 [4]: 8.60 | pIC50 [2]: 4.77

CC(=O)NC1C(O)CC(Cc2cc3ccc(=O)oc3cc2OC(=O)N(C)C)C(O)C1O (stereo not drawn) [Compound 49]
inhibition of MMP-1 (in words) [2]: weak inhibitors

O=C(CC(CCc1ccccc1)C(=O)O)c1ccc(-c2ccc(OCc3ccccc3)cc2)cc1 (stereo not drawn) [Compound 43]
pIC50 [1]: 7.77 | inhibiting femoral lesions [8]: 37.8% | activity in the guinea pig model of osteoarthritis (in words) [8]: active | pIC50 [4]: 7.85 | pIC50 [3]: 5.49

CC(=O)NC(CS)C(=O)NC(Cc1ccccc1)C(N)=O (stereo not drawn) [Compound 34] (Ac-Cys-Phe-NH2; configuration not given here)
pIC50 [2]: < 4.00 | inhibition of MMP-1 (in words) [2]: did not inhibit

COC(=O)c1cccc2c1C(=O)c1c(C(=O)OC)cc(C(=O)O)cc1C2=O [Compound 48]
inhibition of MMP-1 (in words) [2]: MMP-1 inhibitors

O=C(CC(CCN1C(=O)c2ccccc2C1=O)C(=O)O)c1ccc(-c2ccc(OCc3ccccc3)cc2)cc1 (stereo not drawn) [Compound 44]
pIC50 [1]: 8.24 | inhibiting femoral lesions [8]: 53% | activity in the guinea pig model of osteoarthritis (in words) [8]: active | pIC50 [4]: 9.04 | antimetastatic effect, tail vein metastasis model [12]: antimetastatic | antimetastatic effect, spontaneous metastasis model [13]: antimetastatic | pIC50 [3]: 8.82
